US20060276464A1, “Diarylsulfone sulfonamides and use thereof” (Wyeth, priority 2005, published 2006)
Values joined by “and” are separate entries in the source; they are usually repeats but may differ in a detail not shown here. Equal values may be shown once. Read-outs that look alike come from different tables or passages of the source.

Tests used:
SFRP-1 [1] = molecular target: T1, SFRP-1 (Homo sapiens, UniProt Q8N474); test: Fluorescence polarization binding assay (competitive displacement of a probe compound from SFRP-1); conditions: fluorescence anisotropy, 45 nM SFRP-1, 20 nM probe;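 further: test compound competes with a fluorescent probe held by SFRP-1, seen as a drop in probe anisotropy after incubation in darkness, with anisotropy as function of rising compound dose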
T1 sequence (Q8N474 32-314): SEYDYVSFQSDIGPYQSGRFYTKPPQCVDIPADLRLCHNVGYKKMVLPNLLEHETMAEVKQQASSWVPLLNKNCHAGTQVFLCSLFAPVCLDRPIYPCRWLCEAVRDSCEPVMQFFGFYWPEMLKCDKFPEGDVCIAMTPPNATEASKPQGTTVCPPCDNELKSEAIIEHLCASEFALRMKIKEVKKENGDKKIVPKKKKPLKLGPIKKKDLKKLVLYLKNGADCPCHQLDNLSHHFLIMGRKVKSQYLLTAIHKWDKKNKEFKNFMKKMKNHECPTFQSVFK

SFRP-1 [2] = molecular target: T1, SFRP-1; test: Cell-based assay for in vitro measurement of SFRP-1/SARP2 antagonist activity (U2OS cells co-transfected with 16x TCF-tk-Luciferase reporter, Wnt and hSFRP-1); conditions: for fold induction at 15 µM / fold induction at 10 µM: U2OS; for fold induction at 15 µM: single dose, luciferase reporter; for fold induction at 10 µM: read-out: Fold Induction with SFRP-1, U2OS cells, single dose 10 μM, luciferase reporter, fold induction over SFRP-1 control;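 on all read-outs here: U2OS cells co-transfected with a TCF-tk luciferase reporter, a Wnt vector, hSFRP-1 or empty vector and CMV-βgal, luciferase luminescence read in cell lysates alongside βgal activity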
[3] = read-out: Fold Induction with SFRP-1, Conc 15 μM, fold induction over SFRP-1 control, cells with SFRP-1
[4] = read-out: Fold Induction without SFRP-1, Conc 15 μM, cells without SFRP-1 (specificity control)

| SMILES | IC50 (SFRP-1 [1]) | melting point | fold induction at 15 µM (SFRP-1 [2]; [3]) | fold induction at 15 µM (SFRP-1 [2]; [4]) | fold induction at 10 µM (SFRP-1 [2]) | EC50 (SFRP-1 [2]) |
| --- | --- | --- | --- | --- | --- | --- |
| O=S(=O)(NC1CCOCC1)c1cc(S(=O)(=O)c2ccccc2)ccc1C(F)(F)F [Example 608, 5-(phenylsulfonyl)-N-(tetrahydro-2H-pyran-4-yl)-2-(trifluoromethyl)benzenesulfonamide] | 300 nM and 500 nM | 155 to 158 °C | 3.8 | 1.1 |  |  |
| CCCc1ccc(S(=O)(=O)c2ccc(F)cc2)cc1S(=O)(=O)NCCc1ccccn1 [Example 564, 5-[(4-Fluorophenyl)sulfonyl]-2-propyl-N-(2-pyridin-2-ylethyl)benzenesulfonamide] | 1400 nM and 1600 nM | 113 to 115 °C | 3.3 | 1.3 |  |  |
| CC(C)c1ccc(S(=O)(=O)c2ccccc2)cc1S(=O)(=O)NC1CCN(C(=O)c2ccc(C(F)(F)F)cc2)CC1 [Example 807, 2-Isopropyl-5-(phenylsulfonyl)-N-{1-[4-(trifluoromethyl)benzoyl]piperidin-4-yl}benzenesulfonamide] | 900 nM | 140 to 142 °C |  |  | 3 |  |
| CC(C)c1cc(C(C)C)c(S(=O)(=O)c2ccc(F)cc2)cc1S(=O)(=O)NCCc1cccnc1 [Example 632, 5-[(4-Fluorophenyl)sulfonyl]-2,4-diisopropyl-N-(2-pyridin-3-ylethyl)benzenesulfonamide] | 2600 nM | 148 to 150 °C | 3 | 1 |  |  |
| CC(C)c1cc(C(C)C)c(S(=O)(=O)c2ccc(F)cc2)cc1S(=O)(=O)NCC1CCOCC1 [Example 629, 5-[(4-Fluorophenyl)sulfonyl]-2,4-diisopropyl-N-(tetrahydro-2H-pyran-4-ylmethyl)benzenesulfonamide] | 3000 nM | 200 to 202 °C | 2.1 | 1 |  |  |
| CC(C)c1cc(C(C)C)c(S(=O)(=O)c2ccccc2)cc1S(=O)(=O)NCC1CCOCC1 [Example 611, 2,4-Diisopropyl-5-(phenylsulfonyl)-N-(tetrahydro-2H-pyran-4-ylmethyl)benzenesulfonamide] | 1300 nM | 148 to 150 °C | 2.6 | 1.1 |  |  |
| O=S(=O)(NCCc1ccccc1)c1cc(S(=O)(=O)c2ccccc2)ccc1C(F)(F)F [Example 570, N-(2-Phenylethyl)-5-(phenylsulfonyl)-2-(trifluoromethyl)-benzenesulfonamide] | 160 nM | 151 to 153 °C | 2.4 | 1.2 |  |  |
| O=S(=O)(NCCc1ccccn1)c1cc(S(=O)(=O)c2ccccc2)ccc1C(F)(F)F [Example 571, 5-(Phenylsulfonyl)-N-(2-pyridin-2-ylethyl)-2-(trifluoromethyl)benzenesulfonamide] | 130 nM and 300 nM | 149 to 151 °C | 3.1 | 1.2 |  |  |
| CC(C)c1cc(C(C)C)c(S(=O)(=O)c2ccc(F)cc2)cc1S(=O)(=O)NC1CCOCC1 [Example 620, 5-[(4-Fluorophenyl)sulfonyl]-2,4-diisopropyl-N-(tetrahydro-2H-pyran-4-yl)benzenesulfonamide] | 1000 nM | 183 to 186 °C | 2.7 | 1 |  |  |
| CC(C)c1ccc(S(=O)(=O)c2ccccc2)cc1S(=O)(=O)NC1CCN(C(=O)c2ccc(C(C)(C)C)cc2)CC1 [Example 812, N-[1-(4-tert-Butylbenzoyl)piperidin-4-yl]-2-isopropyl-5-(phenylsulfonyl)benzenesulfonamide] | 600 nM | 150 to 152 °C |  |  | 3.9 |  |
| CCCc1ccc(S(=O)(=O)c2ccc(F)cc2)cc1S(=O)(=O)NC1CCN(C(=O)OC(C)(C)C)CC1 [Example 567, tert-Butyl 4-[({5-[(4-fluorophenyl)sulfonyl]-2-propylphenyl}sulfonyl)amino]piperidine-1-carboxylate] | 1600 nM | 151 to 153 °C | 2.2 | 1.3 |  |  |
| CC(C)c1cc(C(C)C)c(S(=O)(=O)c2ccccc2)cc1S(=O)(=O)NCCCn1ccnc1 [Example 615, N-[3-(1H-Imidazol-1-yl)propyl]-2,4-diisopropyl-5-(phenylsulfonyl)benzenesulfonamide] | 1200 nM | 203 to 205 °C | 1.7 | 1 |  |  |
| CC(C)c1cc(C(C)C)c(S(=O)(=O)c2ccccc2)cc1S(=O)(=O)NCCc1cccnc1 [Example 616, 2,4-Diisopropyl-5-(phenylsulfonyl)-N-(2-pyridin-3-ylethyl)benzenesulfonamide] | 800 nM | 163 to 165 °C | 2.7 | 1 |  |  |
| CC(C)c1cc(C(C)C)c(S(=O)(=O)c2ccccc2)cc1S(=O)(=O)NC1CCCC1 [Example 613, N-Cyclopentyl-2,4-diisopropyl-5-(phenylsulfonyl)benzenesulfonamide] | 2500 nM and 3000 nM | 179 to 181 °C | 1.3 | 1 |  |  |
| CC(C)c1cc(C(C)C)c(S(=O)(=O)c2ccccc2)cc1S(=O)(=O)NCCc1ccccn1 [Example 614, 2,4-Diisopropyl-5-(phenylsulfonyl)-N-(2-pyridin-2-ylethyl)benzenesulfonamide] | 1300 nM | 189 to 191 °C | 1.8 | 1 |  |  |
| CC(C)c1cc(C(C)C)c(S(=O)(=O)c2ccccc2)cc1S(=O)(=O)NC1CCOCC1 [Example 610, 2,4-Diisopropyl-5-(phenylsulfonyl)-N-(tetrahydro-2H-pyran-4-yl)benzenesulfonamide] | 900 nM | 159 to 160 °C | 2.5 | 1.1 |  |  |
| CCCc1ccc(S(=O)(=O)c2ccccc2)cc1S(=O)(=O)NCCCn1ccnc1 [Example 556, N-[3-(1H-Imidazol-1-yl)propyl]-5-(phenylsulfonyl)-2-propylbenzenesulfonamide] | 300 nM | 143 to 146 °C | 4 | 1.2 |  |  |
| CCCc1ccc(S(=O)(=O)c2ccccc2)cc1S(=O)(=O)NC1CCOCC1 [Example 551, 5-(Phenylsulfonyl)-2-propyl-N-(tetrahydro-2H-pyran-4-yl)benzenesulfonamide] | 1000 nM | 131 to 133 °C | 3.1 | 1.1 |  |  |
| CC(C)c1ccc(S(=O)(=O)c2ccccc2)cc1S(=O)(=O)NC1CCN(C(=O)c2ccc3ccccc3c2)CC1 [Example 809, 2-Isopropyl-N-[1-(2-naphthoyl)piperidin-4-yl]-5-(phenylsulfonyl)benzenesulfonamide] | 1100 nM | 130 to 132 °C |  |  | 2.8 |  |
| CC(C)c1ccc(S(=O)(=O)c2ccccc2)cc1S(=O)(=O)NC1CCN(C(=O)c2ccc(F)cc2)CC1 [Example 805, N-[1-(4-Fluorobenzoyl)piperidin-4-yl]-2-isopropyl-5-(phenylsulfonyl)benzenesulfonamide] | 400 nM | 218 to 220 °C |  |  | 3 | 512 nM |
| CN1[C@@H]2CC[C@H]1CC(NS(=O)(=O)c1cc(S(=O)(=O)c3ccccc3)ccc1C(F)(F)F)C2 (relative stereo) [Example 1035, N-[(1R*, 5S*)-8-Methyl-8-azabicyclo[3.2.1]oct-3-yl]-5-(phenylsulphonyl)-2-(trifluoromethyl)benzenesulfonamide] | 300 nM | 154 to 157 °C |  |  |  | 1350 nM |
